Source: US9233117B2, “Treatment of inflammatory lesions of rosacea with ivermectin” (Galderma S.A., priority 2013, dated 2016)
Where “and” joins values, the source holds several entries; their conditions need not be identical. Identical values can stand only once.

Experiments:
[1] = Plasma pharmacokinetic study of ivermectin 1% cream in subjects with severe PPR (Example 5); type: in vivo, human
Description: A multi-center, open-label, single treatment study was conducted to assess the pharmacokinetic (PK) profile of ivermectin 1% (w/w) cream in subjects with severe PPR. A maximized dose of about 2 mg/cm^2 (1 g of ivermectin 1% (w/w) cream, equivalent to 10 mg ivermectin per application) was applied to the face once daily for 4 weeks. The treatment was followed by a 28-Day follow-up period.
A total of seventeen subjects received at least one dose of treatment. All subjects provided PK parameters at some time points, but fifteen (9 females and 6 males) provided full PK profiles at Days 0, 14 and 28.
Blood samples for determination of ivermectin levels in plasma were taken from all subjects before application on Days 0, 7, 14, 21 and 28 (pre-dose samples corresponding to Cmin). Additional blood samples were taken on Days 0, 14 and 28 at 1, 3, 6, 9 and 12 hours after application. At, the end of the 28-Day treatment, blood samples were taken on Days 29, 30, 32, 35, 38, 42, 49 and 56 during the follow-up period. The plasma was isolated and frozen (−20° C.) pending analysis.
The pharmacokinetic analysis was performed. From the individual plasma concentrations, the pharmacokinetic parameters were determined by non-compartmental method Kinetica™ sofware, version 4.3, InnaPhase Corporation, Philadelphia, USA).
AUC0-24 H was calculated by the mixed linear-logarithmic trapezoidal method at Day 0, 14 and 28. BLQ was imputed as zero in the individual PK profile.
During the follow up period, the following parameters were measured: • (1) AUC0-t: Area under the concentration-time curve calculated by the mixed linear-logarithmic trapezoidal method from T0 up to the sampling time corresponding to the last quantifiable concentration (Clast); • (2) Kel: The elimination rate constant value (kel) was obtained by linear regression of log-linear terminal phase of concentration-time profile using at least 3 data points, excluding Cmax, otherwise kel was not determined. The acceptability criteria for determination of kel was a coefficient of regression more or equal to 0.98. When kel was not determined, AUC0-inf and t½ were not reported; • (3) t½: The terminal half-life value (t½) was calculated using the equation ln2/kel; • (4) AUC0-inf: Area under the plasma concentration-time curve calculated by the mixed linear-logarithmic trapezoidal method from T0 and extrapolated to time infinity as: AUC0-inf=AUC0-t+Clast/kel.
When the extrapolation represented more than 20%, AUC0-inf and t1/2 […]. Mean values, standard deviation (SD), lowest individual value (Min), maximal individual value (Max) and coefficient of variation (CV) were calculated and reported on each variables (Arithmetic mean for AUC, Cmax, Tmax and harmonic mean for t1/2). Conversely to the protocol, the standard error of mean (SEM) were not calculated and not reported. In addition a statistical analysis was performed on ivermectin specific parameters (including the accumulation ratios).

subjects with PPR = experiment: Study 1 and Study 2: once-daily ivermectin 1% cream vs vehicle in moderate to severe PPR (Example 3); type: in vivo, human
Description: Both studies were conducted in accordance with the ethical principles of the Declaration of Helsinki and Good Clinical Practices, and in compliance with local regulatory requirements.
Each study had three parts. In the first part of the study, subjects with PPR were treated with ivermectin 1% cream (IVM 1%) or vehicle once daily at bedtime for 12 weeks. In the second part of the study, subjects initially treated with IVM 1% once daily at bedtime continued the same treatment, while subjects treated with the vehicle once daily switched to topical treatment with azelaic acid 15% gel twice daily, in the morning and evening. The third part of the study consisted of 4 weeks safety follow-up, without treatment.
Eligible subjects were 18 years or older, with moderate or severe papulopustular rosacea as noted by an IGA of 3 (“several small or large papules/pustules, moderate erythema”) or 4 (“numerous small and/or large papules/pustules, severe erythema”), and presenting with 15-70 facial inflammatory lesions (papules and pustules). […]
Efficacy assessments at each visit were the IGA of disease severity, and inflammatory lesion counts (papules and pustules) on each of the five facial regions (forehead, chin, nose, right cheek, left cheek). Safety assessments included adverse events (AEs) throughout the study, local tolerance parameters (stinging/burning, dryness, itching) at each study visit evaluated on a 4-point scale [from 0 (none) to 3 (severe)], and laboratory parameters (hematology and biochemistry) measured before and after treatment. […]
The co-primary efficacy endpoints in both studies were the success rate based on the IGA outcome and absolute change from baseline in inflammatory lesion counts at the end of week 12 of the studies. The success rate based on IGA score [% of subjects who achieved “clear” or “almost clear” ratings on the IGA scale at week 12 (ITT-LOCF)] was analyzed by the Cochran-Mantel-Haenszel (CMH) test stratified by analysis site, using the general association statistic. […]

[2] = orally administered; cited from earlier work

Q: With ivermectin as the substance, how does the “AUC0-24 H, Min-Max” value ([1]; Day 0) read?
A: [3.16-21.28] ng · h/mL

Q: What about the “AUC0-24 H, mean ± SD” value ([1]; Day 0) of the same substance?
A: 9.29 ± 5.40 ng·h/mL

Q: What about the “Pre-dose/Cmin, Min-Max” value ([1]; Day 0) of the same substance?
A: [0.17-0.86] ng/mL

Q: What about the “Tmax, Min-Max” value ([1]; Day 0) of the same substance?
A: [1-24] h

Q: What about the “Pre-dose/Cmin, mean ± SD” value ([1]; Day 0 (24 hours after D0), plasma, 1 g ivermectin 1% cream on the face once daily) of the same substance?
A: 0.37 ng/mL and 0.37 ± 0.21^(a) ng/mL

Q: What about the “Cmax, mean ± SD” value ([1]; Day 0 (single topical application)) of the same substance?
A: 0.69 ng/mL

Q: What about the “Pre-dose/Cmin, Min-Max” value ([1]; Day 7) of the same substance?
A: [0.56-3.26] ng/mL

Q: What about the “Pre-dose/Cmin, mean ± SD” value ([1]; Day 7, plasma, ivermectin 1% cream once daily) of the same substance?
A: 1.17 ± 0.88 ng/mL

Q: And the “Pre-dose/Cmin, Min-Max” value ([1]; Day 14)?
A: [0.58-2.34] ng/mL

Q: And the “Tmax, Min-Max” value ([1]; Day 14)?
A: [0-24] h

Q: And the “AUC0-24 H, mean ± SD” value ([1]; Day 14 (steady state))?
A: 36.14 ± 15.56 ng·h/mL

Q: And the “Cmax, mean ± SD” value ([1]; Day 14 (steady state))?
A: 2.10 ± 1.04 ng/mL

Q: What about the “Tmax, mean ± SD” value ([1]; Day 14 (steady state)) of the same substance?
A: 10 ± 8 h

Q: And the “Pre-dose/Cmin, mean ± SD” value ([1]; Day 14, plasma, ivermectin 1% cream once daily)?
A: 1.26±0.53 ng/mL and 1.26 ± 0.53^(c) ng/mL

Q: What about the “Pre-dose/Cmin, Min-Max” value ([1]; Day 21) of the same substance?
A: [0.66-3.25] ng/mL

Q: What about the “Pre-dose/Cmin, mean ± SD” value ([1]; Day 21, plasma, ivermectin 1% cream once daily) of the same substance?
A: 1.36±0.66 ng/mL and 1.36 ± 0.66^(c) ng/mL

Q: And the “AUC0-24 H, mean ± SD” value ([1]; Day 28)?
A: 35.43 ± 14.42 ng·h/mL

Q: And the “Cmax, Min-Max” value ([1]; Day 28)?
A: [0.58-3.36] ng/mL

Q: What about the “Cmax, mean ± SD” value ([1]; Day 28) of the same substance?
A: 1.74 ± 0.77 ng/mL

Q: What about the “Pre-dose/Cmin, Min-Max” value ([1]; Day 28) of the same substance?
A: [0.53-3.00] ng/mL

Q: What about the “Tmax, Min-Max” value ([1]; Day 28) of the same substance?
A: [3-24] h

Q: And the “Tmax, mean ± SD” value ([1]; Day 28)?
A: 11 ± 4 h

Q: What about the “total systemic exposure (AUC0-inf)” value ([1]; Day 28) of the same substance?
A: 312 ± 173 ng·h/mL

Q: What about the “Pre-dose/Cmin, mean ± SD” value ([1]; Day 28, plasma, ivermectin 1% cream once daily) of the same substance?
A: 1.36 ± 0.63 ng/mL

Q: What about the “time of last quantifiable concentration after application” value ([1]; after Day 28) of the same substance?
A: approximately 24 days

Q: What about the “apparent terminal half-life, range” value ([1]; after the last topical application (Day 28), 14 subjects) of the same substance?
A: 92 to 238 h

Q: What about the “relative bioavailability vs oral administration of ivermectin” value ([1]; steady state, topical) of the same substance?
A: 16%

Q: What about the “plasma accumulation of ivermectin” value (subjects with PPR; 52-week treatment period (Phase 3 study)) of the same substance?
A: no plasma accumulation

Q: What about the “median reduction from baseline in inflammatory lesion counts” value (subjects with PPR; Study 1, week 2) of the same substance?
A: about 30%

Q: And the “median reduction from baseline in inflammatory lesion counts” value (subjects with PPR; Study 2, week 2)?
A: 27.3%

Q: And the “t1/2, typical” value [2]?
A: around 18 hours
